Laboratory results: patent US7465541B1, “Vitamin D3-responsive sequences located 5′-upstream of p27/kip 1 gene and methods of screening for pharmaceutical agents using the sequences” (Toshiyuki Sakai, priority 2000, dated 2008)

What was measured:
p27^Kip1 mRNA = p27^Kip1 mRNA induction in U937 cells (Northern analysis); assay type: cell-based, human; conditions: peaked between 24 h and 48 h, compared with 0 h
Description: Human cervical cancer cell line, C33A, human osteosarcoma cell lines, U2OS and MG63 were maintained in Dulbecco modified Eagle media containing 10% (v/v) fetal bovine serum (FBS) and cultivated in an atmosphere of 5% CO2 at 37° C. Human myelomonocytic cell line U937 (a generous gift from Dr. Y. Honma of the Saitama Cancer Research Institute, Saitama, Japan) was cultivated in Rosweli Park Memorial Institute (RPMI) 1640 media supplemented with 10% (v/v) fatal bovine serum in an atmosphere of 5% CO2.
For this purpose, a series of 5′ deletion constructs of the p27^Kip1 promoter were examined.

[1] = tested on: −555/−512 region of the human p27^Kip1 promoter fused to SV40 early promoter; experiment: Luciferase reporter assay with −555/−512 sequence upstream of SV40 early promoter in U937 cells; assay type: cell-based
Text: Furthermore, the present inventors generated constructs containing four tandem copies of the specific sequence of the p27^Kip1 promoter fused to a minimal promoter. A double-stranded 52-bp DNA fragment containing a 44-bp sequence corresponding to the −555/−512 region of the human p27^Kip1 promoter and linker sites (indicated by lower case letters below) at both ends was generated from two oligonucleotides. The top strand (5′-aggg[…]-3′) (SEQ ID NO: 5) and the bottom strand (5′-ccct[…]-3′) (SEQ ID NO: 6) were annealed, ligated, blunted and subcloned into the SmaI site upstream of the SV40 early promoter in the PicaGene Promoter Vector 2 (Nippon Gene, Tokyo, Japan) in a forward or reverse orientation to generate PGPV2[−555/−512wild]4 and PGPV2[R−555/−512wiId]4, respectively. Similarly, three types of double-stranded mutated oligonucleotides of the 44-bp sequence were also inserted into the same vector to generate the mutated constructs, PGPV2[−555/−512mSp1-1]4, PGPV2[−555/−512 mSp1-2]4, PGPV2[−555/−512mCTf]4 (see Table 1). Oligonucleotides used in Example 3-6 are shown as follows (SEQ ID NOS: 5, 6, and 18-31).
The present inventors concluded that the region between −555 and −512 relative to the translation start site (−118 and −75 relative to the transcription start site) was sufficient for vitamin D3-induced transcription of the p27^Kip1 gene. Furthermore, both the Sp1-1 site and the CCAAT box in this region were vitamin D3-responsive elements and were required for vitamin D3-induced transcription of the p27^Kip1 gene.

NF-I = experiment: Gel shift assay, NF-I binding to NF-Iwild probe, nuclear extracts of treated U937 cells; assay type: cell-based, human; conditions: U937 cells treated 36 h, versus vehicle
Description: Two μg of each nuclear extract was incubated with the −555/−512wild probe (lanes 1-3), −534/−512wild probe (lanes 4-6), or NF-Iwild probe (lanes 7-12) to detect Sp1, NF-Y, and NF-I, respectively.
Nuclear extracts of U937 cells were prepared according to the procedure of Andrew and Faller (Andrews, N. C. and Faller, D. V. (1991) Nucleic Acids Res., 19, 2499). […] Gel shift assays were carried out as described by Orita et al. (Orita, T. et al. (1997) J. Biol. Chem., 272, 23216-23223). The reaction mixture for the gel shift assay (25 μl final volume) contained 20 mM Tris-HCl (pH 8.0), 100 mM KCl, 10% glycerol, 1 μg of poly(dl-dC), and 2 μg of nuclear extract. After preincubation for 15 minutes at 23° C., probe DNA (approximately 0.5 ng, 10,000 cpm) was added to the mixture, and the binding reaction was allowed to proceed at 23° C. for 20 min. The resulting product was then resolved by electrophoresis on 4% acrylamide-bisacrylamide (29:1), 0.5×TBE nondenaturing gel at 10 V/cm for 150 min. Competition analyses were performed by mixing the indicated amount of appropriate competitor DNA to the binding reaction prior to addition of nuclear extracts. In supershift experiments, antibodies against Sp1 (sc-59X; Santa Cruz), Sp3 (sc-644X; Santa Cruz), and C/EBP-α (sc-7204X; Santa Cruz) were purchased. The antibodies against NF-YA, -YB, and -YC (IgG fraction) were kindly provided by Drs. […]

NF-YA mRNA = experiment: RT-PCR of NF-YA mRNA in treated U937 cells; assay type: cell-based, human; conditions: 10^−7 M, time course, primers F1/R and F2/R
Description: RT-PCR of NF-YA mRNA was carried out as follows. […] RT-PCR was performed using the RNA PCR Kit Ver. 2.1 (Takara, Tokyo, Japan). The forward (F) and reverse (R) primers for NF-YA-short and -long were […] (Primer F1) (SEQ ID NO: 12), […] (primer F2) (SEQ ID NO: 13), and […] (primer R) (SEQ ID NO: 14). The forward and reverse primers for G3PDH were […] (SEQ ID NO: 15) and […] (SEQ ID NO: 16). One microgram of total RNA was used for RT-PCR. PCR was performed for 25 and 20 cycles to detect NF-YA subunits and G3PDH, respectively. PCR products were subjected to electrophoresis in a 3% agarose gel. The primers for NF-YA were designed to detect two different isoforms simultaneously and were located in regions that were conserved in the two isoforms (Li, X. Y. et al. (1992) J. Biol. Chem., 267, 8984-8990).

**Q.** C=C1/C(=C\C=C2/CCC[C@]3(C)[C@@H]([C@H](C)CCCC(C)(C)O)CC[C@@H]23)C[C@@H](O)C[C@@H]1O [vitamin D3, 1,25-dihydroxyvitamin D3] was tested. Which “p27^Kip1 mRNA induction” value (p27^Kip1 mRNA) did it give?
**A.** approximately 4 fold

**Q.** What about the “response to vitamin D3, one copy of the 44 bp fragment” value [1] of the same molecule?
**A.** did not respond

**Q.** What about the “stimulatory effect, PGPV2[−555/−512mCTF]4” value ([1]; 40 h, 10^−7 M) of the same molecule?
**A.** abolished any stimulatory effect

**Q.** And the “stimulatory effect, PGPV2[−555/−512 mSp1-1]4” value ([1]; 40 h, 10^−7 M)?
**A.** abolished any stimulatory effect

**Q.** And the “response to vitamin D3, four copies of the 44 bp fragment (PGPV2[−555/−512wild]4)” value ([1]; 40 h, 10^−7 M, orientation-dependent)?
**A.** conferred significant response

**Q.** What about the “luciferase activity, PGPV2[−555/−512 mSp1-2]4” value ([1]; 40 h, 10^−7 M, similar to p27PF and PGPV2[−555/−512wild]4) of the same molecule?
**A.** activated

**Q.** And the “DNA binding activity of NF-I” value (NF-I)?
**A.** not changed

**Q.** What about the “long form of NF-YA mRNA” value (NF-YA mRNA) of the same molecule?
**A.** decreased gradually
